Laboratory results reported in patent US20110251379A1, “COMPOUNDS USEFUL FOR TREATING NEURODEGENERATIVE DISORDERS” (Satori Pharmaceuticals, Inc., priority 2010, published 2011).
Read-outs that look alike come from different tables or passages of the source.

Experiments:
Assay type in all cases: cell-based
Aβ-42 = assay: MSD Human (6E10) Ab 3-PLEX elisa, conditioned media of 2B7 cells: Aβ-42; settings: for IC50: Aβ-42 (superscript c)
Summary of the method: (§1)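 We dose confluent 2B7 cells for 5 hours at 37° C, keeping DMSO at 1%. Diluted media then incubates on antibody-coated plates either overnight at 4 degrees C or 2 hours at room temp.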

Aβ-40 = assay: MSD Human (6E10) Ab 3-PLEX elisa, conditioned media of 2B7 cells: Aβ-40; settings: for IC50: Aβ-40 (superscript b)
Summary of the method: as §1

Aβ-38 = assay: MSD Human (6E10) Ab 3-PLEX elisa, conditioned media of 2B7 cells: Aβ-38; settings: Aβ-38 (superscript a)
Summary of the method: as §1

[1] = Homo sapiens, read-out: 50% reduction value
[2] = Homo sapiens, read-out: IC50 range

SMILES	IC50 (Aβ-42; read-out: 50% reduction value) [µM]	IC50 (Aβ-40; read-out: 50% reduction value) [µM]	IC50 (Aβ-38; read-out: 50% reduction value) [µM]	further results
CCC(=O)OC(C1CC(C)C2C(O1)C(O)C1(C)C3CCC4C(C)(C)C(OC5CN(C6COC6)CCO5)CCC45CC35CCC21C)C(C)(C)O (stereo not shown) [drawing 1209]	< 1	1 to 10	< 1	IC50 (Aβ-40; read-out: IC50 range): 1 to 10 µM; IC50 (Aβ-38; read-out: IC50 range): < 1 µM
CC(=O)OCC1CC(C)C2C(O1)C(O)C1(C)C3CCC4C(C)(C)C(OC(=O)c5cccnc5)CCC45CC35CCC21C (stereo not shown) [drawing 1210]	1 to 10	1 to 10	1 to 10	IC50 (Aβ-42; read-out: IC50 range): 1 to 10 µM; IC50 (Aβ-40; read-out: IC50 range): > 10 µM
CC(=O)N(Cc1cc(F)cc(F)c1)CC1CC(C)C2C(O1)C(O)C1(C)C3CCC4C(C)(C)C(O)CCC45CC35CCC21C (stereo not shown) [drawing 1211]	1 to 10	> 10	1 to 10	–
CC(=O)N(Cc1ccccn1)CC1CC(C)C2C(O1)C(O)C1(C)C3CCC4C(C)(C)C(O)CCC45CC35CCC21C (stereo not shown) [drawing 1212]	> 10	> 10	> 10	–
CC(=O)N(CC1CC(C)C2C(O1)C(O)C1(C)C3CCC4C(C)(C)C(O)CCC45CC35CCC21C)C(C)C (stereo not shown) [drawing 1213]	–	–	1 to 10	% Inh. (range) (Aβ-42; Aβ-42, 100 μM): E^b (100 μM) E^c (100 μM) (% inhibition of 25-75%); % Inh. (range) (Aβ-40; Aβ-40, 100 μM): E^b (100 μM) E^c (100 μM) (% inhibition of 25-75%)
CC1CC(C(OC(=O)C2CC2)C(C)(C)O)OC2C1C1(C)CCC34CC35CCC(O)C(C)(C)C5CCC4C1(C)C2O (stereo not shown) [drawing 1214]	< 1	1 to 10	1 to 10	–
CC(=O)N(Cc1cc(F)cc(F)c1)CC1CC(C)C2C(O1)C(O)C1(C)C3CCC4C(C)(C)C(OC(=O)C5CNC5)CCC45CC35CCC21C (stereo not shown) [drawing 1215]	1 to 10	1 to 10	1 to 10	IC50 (Aβ-42; read-out: IC50 range): 1 to 10 µM; IC50 (Aβ-40; read-out: IC50 range): 1 to 10 µM; IC50 (Aβ-38; read-out: IC50 range): 1 to 10 µM
CC1CC(C(OC(=O)C2CCC2)C(C)(C)O)OC2C1C1(C)CCC34CC35CCC(O)C(C)(C)C5CCC4C1(C)C2O (stereo not shown) [drawing 1216]	< 1	1 to 10	1 to 10	–
CC1CC(C(OC(=O)N(C)C)C(C)(C)O)OC2C1C1(C)CCC34CC35CCC(O)C(C)(C)C5CCC4C1(C)C2O (stereo not shown) [drawing 1217]	–	–	1 to 10	% Inh. (range) (Aβ-42; Aβ-42, 20 μM): E^b (20 μM) E^c (20 μM) (% inhibition of 25-75%); % Inh. (range) (Aβ-40; Aβ-40, 20 μM): E^b (20 μM) E^c (20 μM) (% inhibition of 25-75%)
CC1CC(C(=O)C(C)(C)O)OC2C1C1(C)CCC34CC35CCC(O)C(C)(C)C5CCC4C1(C)C2O (stereo not shown) [drawing 1218]	–	–	1 to 10	% Inh. (range) (Aβ-42; Aβ-42, 20 μM): F (% inhibition of <25%); % Inh. (range) (Aβ-40; Aβ-40, 20 μM): E (% inhibition of 25-75%)
CC1CC(C(OC(=O)C2CCC2)C(C)(C)O)OC2C1C1(C)CCC34CC35CCC(OC3CN(C6COC6)CCO3)C(C)(C)C5CCC4C1(C)C2O (stereo not shown) [drawing 1219]	< 1	< 1	< 1	IC50 (Aβ-38; read-out: IC50 range): < 1 µM
CC(C)C(=O)OC(C1CC(C)C2C(O1)C(O)C1(C)C3CCC4C(C)(C)C(OC5CN(C6COC6)CCO5)CCC45CC35CCC21C)C(C)(C)O (stereo not shown) [drawing 1220]	< 1	1 to 10	< 1	IC50 (Aβ-38; read-out: IC50 range): < 1 µM
CC(=O)O[C@@H]([C@H]1C[C@@H](C)C2C(O1)C(=O)[C@@]1(C)[C@@H]3CC[C@H]4C(C)(C)[C@@H](O[C@@H]5OC[C@@H](O)[C@H](O)[C@H]5O)CC[C@@]45C[C@@]35CC[C@]21C)C(C)(C)O (stereo partly shown) [drawing 1230]	–	–	–	IC50 (Aβ-42; [1]): > 10 µM; IC50 (Aβ-42; [2]): < 1 µM; IC50 (Aβ-40; [1]): 1 to 10 µM; IC50 (Aβ-38; [1]): 1 to 10 µM; IC50 (Aβ-38; [2]): 1 to 10 µM
CC(=O)O[C@@H]([C@H]1C[C@@H](C)C2C(O1)[C@H](O)[C@@]1(C)[C@@H]3CC[C@H]4C(C)(C)[C@@H](O)CC[C@@]45C[C@@]35CC[C@]21C)C(C)(C)O (stereo partly shown) [drawing 1231]	–	–	–	IC50 (Aβ-42; [1]): 1 to 10 µM; inhibition at 20 µM (Aβ-40; Homo sapiens, Aβ-40, 20 μM): 25 to 75%; IC50 (Aβ-38; [1]): 1 to 10 µM
CCO[C@@H](C1C[C@@H](C)[C@H]2C(O1)[C@H](O)[C@@]1(C)C3CC[C@H]4C(C)(C)C(OC5CN(Cc6ccccc6)CCO5)CC[C@@]45C[C@@]35CC[C@]21C)C(C)(C)O (stereo partly shown) [drawing 1282]	–	–	–	IC50 (Aβ-42; [1]): 1 to 10 µM; IC50 (Aβ-42; [2]): 1 to 10 µM; IC50 (Aβ-40; [1]): 1 to 10 µM; IC50 (Aβ-38; [1]): 1 to 10 µM; IC50 (Aβ-38; [2]): 1 to 10 µM
